Substitutions are numbered along the chain they refer to.
Columns and labels:
[1] = target: T1, hVAChT K317A (Homo sapiens, UniProt Q16572, K317A); assay: ACh equilibrium binding by competition against [3H]vesamicol
T1 sequence (Q16572 1-532 K317A): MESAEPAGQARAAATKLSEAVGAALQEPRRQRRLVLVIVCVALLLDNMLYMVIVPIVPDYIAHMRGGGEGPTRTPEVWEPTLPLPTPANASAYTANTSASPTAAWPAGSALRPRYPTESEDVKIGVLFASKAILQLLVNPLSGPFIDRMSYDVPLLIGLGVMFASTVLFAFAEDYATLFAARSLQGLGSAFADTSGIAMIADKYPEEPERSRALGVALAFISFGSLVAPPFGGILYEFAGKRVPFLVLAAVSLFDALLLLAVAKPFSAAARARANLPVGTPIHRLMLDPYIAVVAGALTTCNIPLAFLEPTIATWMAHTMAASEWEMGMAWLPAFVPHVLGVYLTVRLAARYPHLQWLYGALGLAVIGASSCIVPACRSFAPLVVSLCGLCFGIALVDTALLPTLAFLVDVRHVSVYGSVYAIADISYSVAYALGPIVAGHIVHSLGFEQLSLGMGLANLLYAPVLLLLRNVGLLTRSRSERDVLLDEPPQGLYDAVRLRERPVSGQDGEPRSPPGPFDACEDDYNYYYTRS

[2] = target: T2, hVAChT C388A (Homo sapiens, UniProt Q16572, C388A); assay: as above
T2 sequence (Q16572 1-532 C388A): T1 sequence (Q16572 1-532 K317A) with A317K, C388A

[3] = target: T3, hVAChT F231A (Homo sapiens, UniProt Q16572, F231A); assay: as above
T3 sequence (Q16572 1-532 F231A): T1 sequence (Q16572 1-532 K317A) with F231A, A317K

[4] = target: T4, hVAChT C391A (Homo sapiens, UniProt Q16572, C391A); assay: as above
T4 sequence (Q16572 1-532 C391A): T1 sequence (Q16572 1-532 K317A) with A317K, C391A

[5] = target: T5, hVAChT W325F (Homo sapiens, UniProt Q16572, W325F); assay: [3H]vesamicol saturation binding; conditions: pH 7.4
T5 sequence (Q16572 1-532 W325F): T1 sequence (Q16572 1-532 K317A) with A317K, W325F

[6] = target: T2, hVAChT C388A; assay: [3H]vesamicol saturation binding; conditions: pH 7.4

CC(=O)OCC[N+](C)(C)C [ACh, acetylcholine]
Kd [1]: 6.9 ± 1.2 mM | FHA, fraction of the ACh sites that have high affinity ([1]; K317A hVAChT, pH 7.4): 0.72 ± 0.06 | Kd [2]: 17 ± 4 mM | FHA, fraction of the ACh sites that have high affinity ([2]; C388A hVAChT, pH 7.4): 0.88 ± 0.08 | Kd [3]: 5.8 ± 1.2 mM | FHA, fraction of the ACh sites that have high affinity ([3]; F231A hVAChT, pH 7.4): 0.67 ± 0.05 | Kd [4]: 10 ± 3 mM | FHA, fraction of the ACh sites that have high affinity ([4]; C391A hVAChT, pH 7.4): 0.71 ± 0.07

O[C@@H]1CCCC[C@H]1N1CCC(c2ccccc2)CC1 (racemic) [vesamicol, ( )-trans-2-(4-phenylpiperidino)cyclohexanol]
Bmax, maximal specific [3H]vesamicol binding (VAChT expression level) [5]: 75 ± 3 pmol/mg | Bmax, maximal specific [3H]vesamicol binding (VAChT expression level) [6]: 59 ± 1 pmol/mg
